Test results published in ChEMBL document CHEMBL3044779, “The action of herbicides on fatty acid biosynthesis and elongation in barley and cucumber” (Pest Manag Sci, 2010).
Activity calls are given as the source filed them. No cut-off for these calls is given here.

What was measured:
Cucumis sativus [1] = experiment: Inhibition of fatty acid synthesis in Cucumis sativus (cucumber) assessed as inhibition of [14C]malonate incoporation in total fatty acids at 70 uM measured as total disintegration per g of fresh weight after 3 hr by liquid scintillation counting (reference value: 16.3 +/- 1.1 dpm x 10^6 g'1 fresh wt); assay type: functional
Hordeum vulgare [2] = experiment: Inhibition of fatty acid synthesis in Hordeum vulgare (barley) assessed as inhibition of [14C]malonate incoporation in total fatty acids at 70 uM measured as total disintegration per g of fresh weight after 3 hr by liquid scintillation counting (reference value: 5.2 +/- 0.9 dpm x 10^6 g'1 fresh wt); assay type: functional
Cucumis sativus [3] = experiment: Inhibition of fatty acid synthesis in Cucumis sativus (cucumber) using [14C]acetate assessed as [14C]-labeled 18C fatty acid level at 7 uM after 3 hr by liquid scintillation counting (reference value: 33.5 +/- 1.5%); assay type: functional; set-up: scale not given: the % may be the effect or the level left
Hordeum vulgare [4] = experiment: Inhibition of fatty acid synthesis in Hordeum vulgare (barley) using [14C]acetate assessed as [14C]-labeled 18C fatty acid level at 7 uM after 3 hr by liquid scintillation counting (reference value: 57 +/- 0.9%); assay type: functional; set-up: scale not given: the % may be the effect or the level left
Hordeum vulgare [5] = experiment: Inhibition of fatty acid synthesis in Hordeum vulgare (barley) using [14C]malonate assessed as [14C]-labeled 22C fatty acid level at 70 uM after 3 hr by liquid scintillation counting (reference value: 34.7 +/- 2.4%); assay type: functional; set-up: scale not given: the % may be the effect or the level left
Cucumis sativus [6] = experiment: Inhibition of fatty acid synthesis in Cucumis sativus (cucumber) using [14C]acetate assessed as reduction in [14C]-labeled 20C fatty acid level at 7 uM after 3 hr by liquid scintillation counting relative to control; assay type: functional, organism-based
Cucumis sativus [7] = experiment: Inhibition of fatty acid synthesis in Cucumis sativus (cucumber) using [14C]malonate assessed as [14C]-labeled 16C fatty acid level at 70 uM after 3 hr by liquid scintillation counting (reference value: 5.1 +/- 0.9%); assay type: functional; set-up: scale not given: the % may be the effect or the level left
Hordeum vulgare [8] = experiment: Inhibition of fatty acid synthesis in Hordeum vulgare (barley) using [14C]malonate assessed as reduction in [14C]-labeled 26C fatty acid level at 70 uM after 3 hr by liquid scintillation counting relative to control; assay type: functional, organism-based
Hordeum vulgare [9] = experiment: Inhibition of fatty acid synthesis in Hordeum vulgare (barley) using [14C]acetate assessed as reduction in [14C]-labeled 22C fatty acid level at 7 uM after 3 hr by liquid scintillation counting; assay type: functional, organism-based
Hordeum vulgare [10] = experiment: Inhibition of fatty acid synthesis in Hordeum vulgare (barley) assessed as inhibition of [14C]acetate incoporation in total fatty acids at 7 uM measured as total disintegration per g of fresh weight after 3 hr by liquid scintillation counting (reference value: 5.8 +/- 1.6 dpm x 10^6 g'1 fresh wt); assay type: functional
Cucumis sativus [11] = experiment: Inhibition of fatty acid synthesis in Cucumis sativus (cucumber) using [14C]malonate assessed as reduction in [14C]-labeled 22C fatty acid level at 70 uM after 3 hr by liquid scintillation counting relative to control; assay type: functional, organism-based
Cucumis sativus [12] = experiment: Inhibition of fatty acid synthesis in Cucumis sativus (cucumber) assessed as inhibition of [14C]acetate incoporation in total fatty acids at 7 uM measured as total disintegration per g of fresh weight after 3 hr by liquid scintillation counting (reference value: 4.4 +/- 1 dpm x 10^6 g'1 fresh wt); assay type: functional
Hordeum vulgare [13] = experiment: Inhibition of fatty acid synthesis in Hordeum vulgare (barley) using [14C]acetate assessed as [14C]-labeled 20C fatty acid level at 7 uM after 3 hr by liquid scintillation counting (reference value: 2.1 +/- 0.4%); assay type: functional; set-up: scale not given: the % may be the effect or the level left
Cucumis sativus [14] = experiment: Inhibition of fatty acid synthesis in Cucumis sativus (cucumber) using [14C]malonate assessed as [14C]-labeled 18C fatty acid level at 70 uM after 3 hr by liquid scintillation counting (reference value: 14.3 +/- 2%); assay type: functional; set-up: scale not given: the % may be the effect or the level left
Cucumis sativus [15] = experiment: Inhibition of fatty acid synthesis in […] using [14C]acetate assessed as reduction in [14C]-labeled 22C fatty acid level at 7 uM after 3 hr by liquid scintillation counting; assay type: functional, organism-based
Cucumis sativus [16] = experiment: Inhibition of fatty acid synthesis in Cucumis sativus (cucumber) using [14C]acetate assessed as [14C]-labeled 16C fatty acid level at 7 uM after 3 hr by liquid scintillation counting (reference value: 27.6 +/- 5.1%); assay type: functional; set-up: scale not given: the % may be the effect or the level left
Hordeum vulgare [17] = experiment: Inhibition of fatty acid synthesis in Hordeum vulgare (barley) using [14C]malonate assessed as [14C]-labeled 16C fatty acid level at 70 uM after 3 hr by liquid scintillation counting (reference value: 3.3 +/- 0.9%); assay type: functional; set-up: scale not given: the % may be the effect or the level left
Cucumis sativus [18] = experiment: Inhibition of fatty acid synthesis in Cucumis sativus (cucumber) using [14C]malonate assessed as reduction in [14C]-labeled 24C fatty acid level at 70 uM after 3 hr by liquid scintillation counting relative to control; assay type: functional, organism-based
Hordeum vulgare [19] = experiment: Inhibition of fatty acid synthesis in Hordeum vulgare (barley) using [14C]malonate assessed as reduction in [14C]-labeled 24C fatty acid level at 70 uM after 3 hr by liquid scintillation counting relative to control; assay type: functional, organism-based
Hordeum vulgare [20] = experiment: Inhibition of fatty acid synthesis in Hordeum vulgare (barley) using [14C]acetate assessed as reduction in [14C]-labeled 24C fatty acid level at 7 uM after 3 hr by liquid scintillation counting; assay type: functional, organism-based
Cucumis sativus [21] = experiment: Inhibition of fatty acid synthesis in Cucumis sativus (cucumber) using [14C]malonate assessed as [14C]-labeled 20C fatty acid level at 70 uM after 3 hr by liquid scintillation counting (reference value: 11.7 +/- 2%); assay type: functional; set-up: scale not given: the % may be the effect or the level left
Hordeum vulgare [22] = experiment: Inhibition of fatty acid synthesis in Hordeum vulgare (barley) using [14C]malonate assessed as [14C]-labeled 18C fatty acid level at 70 uM after 3 hr by liquid scintillation counting (reference value: 14.4 +/- 6.3%); assay type: functional; set-up: scale not given: the % may be the effect or the level left
Hordeum vulgare [23] = experiment: Inhibition of fatty acid synthesis in Hordeum vulgare (barley) using [14C]malonate assessed as reduction in [14C]-labeled 20C fatty acid level at 70 uM after 3 hr by liquid scintillation counting relative to control; assay type: functional, organism-based
Hordeum vulgare [24] = experiment: Inhibition of fatty acid synthesis in Hordeum vulgare (barley) using [14C]acetate assessed as [14C]-labeled 16C fatty acid level at 7 uM after 3 hr by liquid scintillation counting (reference value: 30.6 +/- 0.2%); assay type: functional; set-up: scale not given: the % may be the effect or the level left

In the case of `CCN(CC)C(=O)n1cnc(S(=O)(=O)c2c(C)cc(C)cc2C)n1` [CAFENSTROLE], the Activity (Cucumis sativus [1]) is reported as 9.4 ×10⁶ dpm, the Activity (Hordeum vulgare [2]) is reported as 2.7 ×10⁶ dpm and the Activity (Cucumis sativus [3]) is reported as 39.6%. For the same compound, the Activity (Hordeum vulgare [4]) was 66.1%, the Activity (Hordeum vulgare [5]) was 14.7% and the inhibition (Cucumis sativus [6]) was “Active”. For the same compound, the Activity (Cucumis sativus [7]) was 20.4%, the inhibition (Hordeum vulgare [8]) was “Active” and the inhibition (Hordeum vulgare [9]) was “Active”. The Activity (Hordeum vulgare [10]) was 5.1 ×10⁶ dpm, the inhibition (Cucumis sativus [11]) was “Active” and the Activity (Cucumis sativus [12]) was 2.5 ×10⁶ dpm. For the same compound, the Activity (Hordeum vulgare [13]) was 2.2%, the Activity (Cucumis sativus [14]) was 71.3% and the inhibition (Cucumis sativus [15]) was “Active”. For the same compound, the Activity (Cucumis sativus [16]) was 60.4%, the Activity (Hordeum vulgare [17]) was 10% and the inhibition (Cucumis sativus [18]) was “Active”. For the same compound, the inhibition (Hordeum vulgare [19]) was “Active”, the inhibition (Hordeum vulgare [20]) was “Active” and the Activity (Cucumis sativus [21]) was 8.4%. For the same compound, the Activity (Hordeum vulgare [22]) was 65.4%, the inhibition (Hordeum vulgare [23]) was “Active” and the Activity (Hordeum vulgare [24]) was 32.4%.
